Laboratory results: patent US20250127804A1, “RIBOSE LINKERS AND CONJUGATES THEREOF” (ELYSIUM HEALTH INC., priority 2022, published 2025)
Where “and” joins values, the source holds several entries; their conditions need not be identical. Equal values may be shown once. Entries after “also recorded” stand apart in the source; their conditions may differ. Read-outs that look alike come from different tables or passages of the source.

Tests used:
[1] = test system: purine nucleoside phosphorylase (PNP); test: PNP enzyme activity assay (release of NAM monitored by 1H NMR); format: in vitro ADME; details: for stability to PNP (in words): triflates dissolved in DMSO; for overall trend of stability of NR esters to PNP: rank order; for ester hydrolysis / deprotection observed during PNP incubation: over time
Description: To ensure that the stability rather than the solubility could be investigated, both the triflate and the chloride form of NRLR (“NRLR-OTf” and “NRLR-Cl”, respectively) were tested for their stability in aqueous buffers and as substrates of the enzyme purine nucleoside phosphorylase (PNP). The release of nicotinamide (NAM) was measured, which is indicative of water-catalyzed hydrolysis. Further, the release of ribose vs. phosphoriboside was monitored, which is indicative of PNP activity. Loss of esters via hydrolysis in buffer catalyzed condition also occurs over time. Once the C5-hydroxyl is free, PNP recognizes the nucleoside and catalyze phosphorolysis. It is not known whether this hydrolysis must occur for all the esters before PNP can act on the nucleoside. The scheme below illustrates the reaction with a partially deprotected nucleoside.
Phosphorolysis of NRCl by PNP (Sigma Aldrich) was performed in HEPES buffer, containing KH2PO4 and 10% D2O at 25° C. and was monitored by 1H NMR.
Incubations were conducted in the NMR tube which contained a final volume of 505 μl including 450 μl HEPES buffer (100.0 mM, pH 7.0), containing 100 mM KH2PO4, 50.0 μl NRCl (100.0 mM in 1 mL D2O) and when appropriate 5 μl PNP (1 mg dissolved in 50 μl HEPES buffer) was added and measurements were taken at t=5 min and 15 min.
Similarly, PNP study of NRAD-triflate was conducted in DMSO.

[2] = Solubility in water; format: physicochemical
[3] = Octanol-water partition coefficient (Pow) by 1H NMR; format: physicochemical
Description: The experiment was performed as described in “Measuring Lipophilicity with NMR,” SpinSolve Carbon®, MagriTek (2014). Briefly, ^1H NMR spectra were recorded for NRLR-Cl in D2O, then an equivalent volume of 1-octanol was added to the same NMR tube, and the ^1H NMR was recorded again. The measurements were performed in triplicate. The Pow was calculated based on the concentrations of the NRLR-Cl in the D2O layer and in the octanol layer, as determined based on the NMR peak values. The average measured log POW of NRLR-Cl is 1.816.

[4] = test system: enhanced lipase (Candida rugens); test: Lipase assay; format: in vitro ADME
Description: NRLR was subjected to a lipase assay in 10% DMSO, 450 μL HEPES buffer, and enhanced lipase (Candida rugens).

[5] = 1-octanol/D2O, single experiment, listed as NRLR-CI

Row | Compound | stability to PNP (in words) ([1]; 1H NMR) | overall trend of stability of NR esters to PNP [1] | solubility in water [2] | ester hydrolysis / deprotection observed during PNP incubation ([1]; 1H NMR) | remaining NR diester peaks ([1]; PNP, after 2 days (FIG. 40B)) | also measured
1 | NC(=O)c1ccc[n+]([C@@H]2O[C@H](CO)[C@@H](O)[C@H]2O)c1 [NRCl, Nicotinamide riboside, reference compound] | least stable to PNP enzyme | NRTA>NRAD>NRML>NRLR>NRCl | – | – | – | time to complete conversion/degradation to NAM after PNP addition ([1]; HEPES buffer pH 7.0, KH2PO4, 10% D2O, 25° C., 1H NMR, listed as NR): ≤ 5 min
2 | CCCCCCCCCCCC(=O)OC[C@H]1O[C@@H]([n+]2cccc(C(N)=O)c2)[C@H](OC(C)=O)[C@@H]1OC(C)=O [NRLR-Cl, NRLR-Chloride] | – | – | soluble in water | – | – | Average (LogPow) ([3]; 1-octanol/D2O, average of triplicate): 1.816; logP ([3]; 1-octanol/D2O, average of triplicate, read-out: Average (LogPow)): 1.82; LogPow [3, 5]: 1.89 and 1.80 and 1.76; Pow [3, 5]: 78.66 and 63.33 and 58.88; Peak values in water layer ([3]; 1H NMR in D2O before octanol addition, listed as NRLR-CI): 0.0478 and 0.0386 and 0.0539; Peak values after octanol addition ([3]; 1H NMR, D2O layer after equivalent volume of 1-octanol, listed as NRLR-CI): 0.0006 and 0.0009
3 | CC(=O)OC[C@H]1O[C@@H]([n+]2cccc(C(N)=O)c2)[C@H](OC(C)=O)[C@@H]1OC(C)=O [NRTA, NR triacetate, reference compound] | stable to PNP; also recorded: more stable to PNP than NRCL | NRTA>NRAD>NRML>NRLR>NRCl | – | Slow partial ester hydrolysis | – | hydrolysis and NAM release with PNP ([1]; after 24 hours): very slowly hydrolyzed and releases NAM
4 | CC(=O)O[C@@H]1[C@H](OC(C)=O)[C@@H](COC(=O)CC(=O)OC[C@H]2O[C@@H]([n+]3cccc(C(N)=O)c3)[C@H](OC(C)=O)[C@@H]2OC(C)=O)O[C@H]1[n+]1cccc(C(N)=O)c1 [compound 8a, NR malonate] | less stable compared to NR adipate | NRTA>NRAD>NRML>NRLR>NRCl | – | – | still showed some NR diester peaks | –
5 | CC(=O)O[C@@H]1[C@H](OC(C)=O)[C@@H](COC(=O)CCCCC(=O)OC[C@H]2O[C@@H]([n+]3cccc(C(N)=O)c3)[C@H](OC(C)=O)[C@@H]2OC(C)=O)O[C@H]1[n+]1cccc(C(N)=O)c1 [compound 8d, NR adipate] | appears stable to PNP | NRTA>NRAD>NRML>NRLR>NRCl | – | ester dimer appeared to remain intact | still showed some NR diester peaks | –
6 | NR-laurate (NRLR) triflate [compound 8g] | less stable compared to NR adipate | NRTA>NRAD>NRML>NRLR>NRCl | not completely soluble in water | partial deprotection of the esters over time | – | increase in NAM ([1]; PNP, after 1 day (FIG. 40A)): 30%; degraded to NAM ([1]; PNP, after 2 days (FIG. 40B)): ~90%; overall increase in NAM ([1]; PNP, over 24 hours): 17%; partial loss of one ester [4]: < 5%; effect of increased concentration of lipase ([4]; over 12 hours of incubation): no effect; solubility in water ([2]; listed as NRLR-OTf): is not
